# Where no end group is shown, it is not given here.
# Legend:
# [1] = tested on: WT MSCs; test: OVA-AF647 uptake by WT MSCs; format: cell-based, mouse; conditions: OVA-AF647 admixed with CA-hnRNPA1
# Procedure: To evaluate OVA uptake, MSCs were first treated with […] of OVA-AF647 admixed with CA-hnRNPA1 for 1 hour at 37° C. then assessed for their fluorescence intensity by flow-cytometry. To evaluate antigen processing, MSCs were incubated with 10 µg/mL OVA-DQ® admixed with A1 at 37° C. Half an hour later, cells were washed, and regular media added. At the end of the indicated incubation time, cells were collected and washed with cold PBS containing 2% FBS. Fluorescence was monitored by flow cytometry.
# [2] = tested on: cpMSCs; test: OVA-DQ processing in cpMSCs, flow cytometry; format: cell-based; conditions: various molar ratios
# Procedure: For this experiment, a cross-presenting mesenchymal stromal cell line (cpMSC) was used as the antigen presenting cells, which were pulsed with DQ™ Ovalbumin (i.e., OVADQ). OVADQ fluorescence was measured by flow cytometry. Different ratios of CA (NLS1 RSP17 [FIG. 17A]; NLS3 RPS17 [FIG. 17B]; and PQBP-1 [FIG. 17C] to antigen (CA: OVA=22:1, 12:1, 8:1, 4:1, and 2:1) were tested (hnRNPA1 M9 NLS at 2:1).
# To further dissect the effect of bile acid peptide conjugates on antigen presentation, antigen internalization and processing were evaluated. cpMSCs were pulsed with OVA-labelled with AF647 in the presence of various molar ratios of different bile acid peptide conjugates, NLS1-RPS17 [FIG. 16A]; NLS3 RPS17 [FIG. 16B]; PQBP-1 [FIG. 16C]; and hnRNPA1 M9 NLS [FIG. 6]) and fluorescence was assessed by flow cytometry. […] OVA processing was assessed by pulsing cpMSCs with DQ™-Ovalbumin (OVA-DQ) in the presence of the same bile acid peptide conjugates as in FIGS. 6 and 16.
# [3] = tested on: WT MSCs; test: Antigen cross-presentation assay on wild-type MSCs with B3Z cells; format: cell-based, mouse
# Procedure: In order to generate Bone marrow (BM)-derived mouse MSCs, the femurs of 6-8-week-old female Balb/c or C57BL/6 mice were isolated and flushed with Alpha Modification of Eagle's Medium (AMEM) supplemented with 10% FBS and 50 U/mL Penicillin-Streptomycin in a 10 cm cell culture dish, then incubated at 37° C. Two days later, non-adherent cells were removed and the media replaced every 3 to 4 days until plastic-adherent cells reached 80% confluency. The generated cells were detached using 0.05% trypsin and expanded until a uniform MSC population was obtained. The generated MSCs were validated for their innate phenotype by flow-cytometry for the expression of CD44, CD45, CD73, and CD90. The cells were frozen in liquid nitrogen until use.
# To assess cross-presentation assay, 25×10^3 cells MSCs were seeded per well in 24-well plate then pulsed with steroid acid peptide-conjugated for 6 h admixed with OVA. At the end of the pulsing period, the cells were washed to remove excess antigen then 5×10^4 B3Z cells. The cells were incubated for 17-19 hours prior to their lysis and incubation for another 4-6 hours at 37° C. with a CPRG solution. The optical density signal was detected at wavelength 570 using a SynergyH1™ microplate reader (Biotek, Winooski, VT, United States).
# To determine whether a similar effect occurs in wild type (WT) (i.e., non-engineered) MSCs, BM-derived MSCs (Example 1) were used instead in the same cross presentation assay with B3Z responder cells.
# [4] = tested on: mesenchymal stromal cells (MSCs); test: OVA-AF647 intracellular delivery, flow cytometry; format: cell-based; conditions: OVA-AF647 mixed with 45 μM conjugate, nine hours, vs cargo alone
# Procedure: Mesenchymal stromal cells (MSCs) were incubated with either unconjugated fluorescently labeled OVA-AF647 alone or mixed with 45 μM of CA-HnRPA1 NLS steroid acid-peptide for nine hours and then intracellular OVA-AF647 delivery was assessed by flow cytometry as described in Example 1. […] The experiment was repeated with DQ™ OVA as cargo to evaluate the intracellular fate of the cargo delivered upon coincubation with CA-HnRPA1 NLS, as described in Example 4.
# [5] = tested on: MSCs; test: Cytokine and chemokine analysis (Luminex); format: cell-based, mouse; conditions: 50 μM CA-hnRNPA1, 6 h
# Procedure: For cytokine and chemokine profiling, 15 cm cell culture dishes containing 80-90% confluent MSCs were grown in serum-free AMEM for 24 h at 37° C. and 5% CO2. MSCs were then treated with 50 μM of CA-hnRNPA1 in serum-free AMEM for 6 h. The supernatant was collected and fresh serum-free AMEM was replenished, without CA-hnRNPA1. After 24 h of the initial CA-hnRNPA1 treatment, the supernatant was collected and gathered with the previous one collected. Collected supernatants were then concentrated using the Amicon Ultra-4™ centrifugal filters (3000 NMWL) for 1 h at 4° C. Collected concentrates (80×) were then frozen at −80° C. until shipped to EveTechnologies™ (Calgary, AB, Canada) for cytokine/chemokine assessment by […].
# [6] = tested on: MSCs; test: Flow cytometry assessment of ROS production; format: cell-based, mouse; conditions: WT MSCs
# From the text: Dp44mt was used as a positive control. […] For FIGS. 19A-19C, n=6/group with *P<0.05, **P<0.01 and ***P<0.001.
# Next, the mechanism involved in cross presentation enhancement of steroid acid-peptide conjugates was further dissected.
substance,measurement,setting,value
"CA-hnRNPA1: cholic acid conjugated to hnRNPA1 M9 NLS peptide CSNFGPMKGGNFGGRSSGPY (SEQ ID NO: 4) (not fully specified (N-terminus); also: cholic acid conjugate, site not given here)",OVA uptake by WT MSCs,[1],increase in OVA uptake
same,OVA processing (OVA-DQ fluorescence),[2],enhance OVA processing
same,antigen cross-presentation with conjugate diluted in PBS or H2O,[3]; WT MSCs,enhancement
same,OVA cross presentation by WT MSCs (B3Z),[3]; WT MSCs pulsed with OVA with or without conjugate,significantly enhanced
same,intracellular OVA-AF647 cargo delivery,[4]; listed as CA-HnRPA1,increased intracellular cargo delivery
same,intracellular OVA-AF647 cargo delivery,[4]; listed as CA-hnRPA1 M9 NLS,increased intracellular delivery
same,cytokine levels (Luminex),[5],increases in various cytokines
same,ROS production by MSCs,[6],increase in ROS production

# Source: patent publication US20250049914A1, “STEROID ACID-PEPTIDE BASED INTRACELLULAR CARGO DELIVERY” (DEFENCE THERAPEUTICS INC., priority 2021, published 2025)
